{
  "source": "paper PMC5218480",
  "about": "(PLoS ONE, 2017)",
  "tested_on": "MV-4-11 cells",
  "assay": "Gene expression microarray analysis (Affymetrix PrimeView) and GSEA",
  "type": "cell-based, human",
  "set-up": "RFU PODN (11730768_x_at) / Fold change /veh PODN (11730768_x_at) / RFU LINC00158 (11744669_a_at) / Fold change /veh LINC00158 (11744669_a_at) / RFU DUSP10 (11751237_a_at) / Fold change /veh DUSP10 (11751237_a_at) / RFU ID3 (11757404_x_at) / Fold change /veh ID3 (11757404_x_at) / RFU PLEKHG5 (11737974_s_at) / Fold change /veh PLEKHG5 (11737974_s_at) / RFU LRRC4B (11730491_at) / Fold change /veh LRRC4B (11730491_at) / RFU GIMAP4 (11747438_a_at) / Fold change /veh GIMAP4 (11747438_a_at) / RFU KRT8 (11758183_x_at) / Fold change /veh KRT8 (11758183_x_at) / RFU CNN1 (11734310_a_at) / Fold change /veh CNN1 (11734310_a_at) / RFU VPS37D (11726825_at) / Fold change /veh VPS37D (11726825_at) / RFU C10orf10 (11716522_x_at) / Fold change /veh C10orf10 (11716522_x_at) / RFU KIR2DL2 /// KIR2DL4 /// KIR2DL5A /// KIR2DL5B /// KIR2DS1 /// KIR2DS2 /// KIR2DS3 /// KIR2DS4 /// KIR3DL3 /// KIR3DL3 /// KIR3DS1 (11738374_at) / Fold change /veh KIR2DL2 /// KIR2DL4 /// KIR2DL5A /// KIR2DL5B /// KIR2DS1 /// KIR2DS2 /// KIR2DS3 /// KIR2DS4 /// KIR3DL3 /// KIR3DL3 /// KIR3DS1 (11738374_at) / RFU C1QL1 (11718748_at) / Fold change /veh C1QL1 (11718748_at) / RFU TMPRSS4 (11747572_a_at) / Fold change /veh TMPRSS4 (11747572_a_at) / RFU HAMP (11756126_x_at) / Fold change /veh HAMP (11756126_x_at) / RFU RNFT2 (11725882_a_at) / Fold change /veh RNFT2 (11725882_a_at) / RFU NR4A2 (11747474_a_at) / Fold change /veh NR4A2 (11747474_a_at) / RFU ABCC12 (11746883_a_at) / Fold change /veh ABCC12 (11746883_a_at) / RFU TMEM136 (11760407_x_at) / Fold change /veh TMEM136 (11760407_x_at) / RFU CLDN22 /// WWC2 (11732394_at) / Fold change /veh CLDN22 /// WWC2 (11732394_at) / RFU HLA-DPB1 (11760878_x_at) / Fold change /veh HLA-DPB1 (11760878_x_at) / RFU SPINT1 (11716480_a_at) / Fold change /veh SPINT1 (11716480_a_at) / RFU GAP43 (11754022_s_at) / Fold change /veh GAP43 (11754022_s_at) / RFU A4GNT (11735810_at) / Fold change /veh A4GNT (11735810_at) / RFU PRB3 (11715151_x_at) / Fold change /veh PRB3 (11715151_x_at) / RFU TUBB4B (11761932_at) / Fold change /veh TUBB4B (11761932_at) / RFU CAPN14 (11732068_a_at) / Fold change /veh CAPN14 (11732068_a_at) / RFU TMCC2 (11721928_a_at) / Fold change /veh TMCC2 (11721928_a_at) / RFU IRGQ (11745062_a_at) / Fold change /veh IRGQ (11745062_a_at) / RFU FAM174B (11720279_a_at) / Fold change /veh FAM174B (11720279_a_at) / RFU TMPRSS4 (11748680_a_at) / Fold change /veh TMPRSS4 (11748680_a_at) / RFU FAM212B (11763350_a_at) / Fold change /veh FAM212B (11763350_a_at) / RFU PLEKHG5 (11743358_a_at) / Fold change /veh PLEKHG5 (11743358_a_at) / RFU ZSCAN30 (11745921_a_at) / Fold change /veh ZSCAN30 (11745921_a_at) / RFU CMKLR1 (11741424_a_at) / Fold change /veh CMKLR1 (11741424_a_at) / RFU LOC101060620 /// MAPK8IP1 (11723275_at) / Fold change /veh LOC101060620 /// MAPK8IP1 (11723275_at) / RFU SPTSSB (11747773_x_at) / Fold change /veh SPTSSB (11747773_x_at) / RFU PRSS12 (11739890_at) / Fold change /veh PRSS12 (11739890_at) / RFU BIN1 (11741810_x_at) / Fold change /veh BIN1 (11741810_x_at) / RFU WNT11 (11732464_a_at) / Fold change /veh WNT11 (11732464_a_at) / RFU C10orf10 (11716521_a_at) / Fold change /veh C10orf10 (11716521_a_at) / RFU C5orf56 (11738089_at) / Fold change /veh C5orf56 (11738089_at) / RFU CYB561 (11721691_x_at) / Fold change /veh CYB561 (11721691_x_at) / RFU ANKRD19P (11752326_a_at) / Fold change /veh ANKRD19P (11752326_a_at) / RFU OR2T12 /// OR2T33 /// OR2T8 (11738714_s_at) / Fold change /veh OR2T12 /// OR2T33 /// OR2T8 (11738714_s_at) / RFU VCAN (11748164_a_at) / Fold change /veh VCAN (11748164_a_at) / RFU JSRP1 (11732532_at) / Fold change /veh JSRP1 (11732532_at) / RFU KRTAP10-11 (11738290_x_at) / Fold change /veh KRTAP10-11 (11738290_x_at) / RFU MYO3A (11730013_a_at) / Fold change /veh MYO3A (11730013_a_at) / RFU EBF3 (11725865_a_at) / Fold change /veh EBF3 (11725865_a_at) / RFU CAMK2N1 (11719241_x_at) / Fold change /veh CAMK2N1 (11719241_x_at) / RFU C5orf56 (11738088_a_at) / Fold change /veh C5orf56 (11738088_a_at) / RFU OLFML3 (11715873_a_at) / Fold change /veh OLFML3 (11715873_a_at) / RFU LOC100653217 /// NTM (11731650_a_at) / Fold change /veh LOC100653217 /// NTM (11731650_a_at) / RFU MAPK11 (11762145_a_at) / Fold change /veh MAPK11 (11762145_a_at) / RFU FIZ1 (11724087_x_at) / Fold change /veh FIZ1 (11724087_x_at) / RFU OASL (11726364_x_at) / Fold change /veh OASL (11726364_x_at) / RFU SOX15 (11748057_x_at) / Fold change /veh SOX15 (11748057_x_at) / RFU CD79A (11719716_a_at) / Fold change /veh CD79A (11719716_a_at) / RFU HIST1H1D (11736915_at) / Fold change /veh HIST1H1D (11736915_at) / RFU CASKIN2 (11723855_a_at) / Fold change /veh CASKIN2 (11723855_a_at) / RFU LOC730098 (11760151_x_at) / Fold change /veh LOC730098 (11760151_x_at) / RFU OR4N2 (11742367_at) / Fold change /veh OR4N2 (11742367_at) / RFU PRRT2 (11749266_a_at) / Fold change /veh PRRT2 (11749266_a_at) / RFU SNX32 (11753110_a_at) / Fold change /veh SNX32 (11753110_a_at) / RFU CDHR5 (11726645_a_at) / Fold change /veh CDHR5 (11726645_a_at) / RFU RCAN1 (11760418_a_at) / Fold change /veh RCAN1 (11760418_a_at) / RFU FAM167A (11723789_a_at) / Fold change /veh FAM167A (11723789_a_at) / RFU FAM26E (11764081_at) / Fold change /veh FAM26E (11764081_at) / RFU ISYNA1 (11749810_s_at) / Fold change /veh ISYNA1 (11749810_s_at) / RFU ACY1 (11761880_at) / Fold change /veh ACY1 (11761880_at) / RFU 11764098_at / Fold change /veh 11764098_at / RFU SAMD14 (11745864_x_at) / Fold change /veh SAMD14 (11745864_x_at) / RFU NPB (11741838_a_at) / Fold change /veh NPB (11741838_a_at) / RFU TMPRSS6 (11731388_a_at) / Fold change /veh TMPRSS6 (11731388_a_at) / RFU KRTAP10-2 (11738614_at) / Fold change /veh KRTAP10-2 (11738614_at) / RFU ARHGAP8 /// PRR5-ARHGAP8 (11727945_x_at) / Fold change /veh ARHGAP8 /// PRR5-ARHGAP8 (11727945_x_at) / RFU KRTAP5-7 /// NADSYN1 (11734609_at) / Fold change /veh KRTAP5-7 /// NADSYN1 (11734609_at) / RFU RASL12 (11751679_a_at) / Fold change /veh RASL12 (11751679_a_at) / RFU CDKN2B (11736163_a_at) / Fold change /veh CDKN2B (11736163_a_at) / RFU PRF1 (11729649_at) / Fold change /veh PRF1 (11729649_at) / RFU, ZNF638 /// ZNF638-IT1 / Fold change vs veh, ZNF638 /// ZNF638-IT1 / RFU, PANK3 / Fold change vs veh, PANK3 / RFU, SH3YL1 / Fold change vs veh, SH3YL1 / RFU, ZEB2 / Fold change vs veh, ZEB2 / RFU, NRIP1 / Fold change vs veh, NRIP1 / RFU, PTTG1IP / Fold change vs veh, PTTG1IP / RFU, CAPN2 / Fold change vs veh, CAPN2 / RFU, MED14 / Fold change vs veh, MED14 / RFU, SNORA58 / Fold change vs veh, SNORA58 / RFU, C1orf63 / Fold change vs veh, C1orf63 / RFU, LRRFIP1 / Fold change vs veh, LRRFIP1 / RFU, NDUFAF7 / Fold change vs veh, NDUFAF7 / RFU, SLC12A2 / Fold change vs veh, SLC12A2 / RFU, IBTK / Fold change vs veh, IBTK / RFU, ESF1 / Fold change vs veh, ESF1 / Fold change vs veh, TMEM50B / RFU, TAOK1 / Fold change vs veh, TAOK1 / RFU, ACBD3 / Fold change vs veh, ACBD3 / RFU, TMA16 / Fold change vs veh, TMA16 / RFU, RWDD3 / Fold change vs veh, RWDD3 / RFU, BCAT1 / Fold change vs veh, BCAT1 / RFU, EDEM3 / Fold change vs veh, EDEM3 / RFU, TMEM33 / Fold change vs veh, TMEM33 / RFU, WDR75 / Fold change vs veh, WDR75 / RFU, AHCTF1 / Fold change vs veh, AHCTF1 / RFU, TFRC / Fold change vs veh, TFRC / RFU, ZDHHC17 / Fold change vs veh, ZDHHC17 / RFU, NOM1 / Fold change vs veh, NOM1 / RFU, ARL8B / Fold change vs veh, ARL8B / RFU, ZBTB11 / Fold change vs veh, ZBTB11 / RFU, TAMM41 / Fold change vs veh, TAMM41 / RFU, KIAA1704 /// LOC100996395 / Fold change vs veh, KIAA1704 /// LOC100996395 / RFU, ING1 / Fold change vs veh, ING1 / RFU, TRMT61B / Fold change vs veh, TRMT61B / RFU, FUBP3 / Fold change vs veh, FUBP3 / RFU, TP53 / Fold change vs veh, TP53 / RFU, TNKS2 / Fold change vs veh, TNKS2 / RFU, ZFP14 / Fold change vs veh, ZFP14 / RFU, ACTR2 / Fold change vs veh, ACTR2 / RFU, PPP3R1 / Fold change vs veh, PPP3R1 / RFU, PIK3R1 / Fold change vs veh, PIK3R1 / RFU, HNRNPA1 / Fold change vs veh, HNRNPA1 / RFU, RNF170 / Fold change vs veh, RNF170 / RFU, ZNF28 / Fold change vs veh, ZNF28 / RFU, RNGTT / Fold change vs veh, RNGTT / RFU, OGT / Fold change vs veh, OGT / RFU, BRD1 / Fold change vs veh, BRD1 / RFU, MARS / Fold change vs veh, MARS / RFU, ZNF655 / Fold change vs veh, ZNF655 / RFU, FAHD1 / Fold change vs veh, FAHD1 / RFU, BDP1 / Fold change vs veh, BDP1 / RFU, LRRCC1 / Fold change vs veh, LRRCC1 / RFU, ARID1A / Fold change vs veh, ARID1A / RFU, ZNF146 / Fold change vs veh, ZNF146 / RFU, ZNF330 / Fold change vs veh, ZNF330 / RFU, GPN3 / Fold change vs veh, GPN3 / RFU, C9orf123 / Fold change vs veh, C9orf123 / RFU, N4BP2L2 / Fold change vs veh, N4BP2L2 / RFU, ARFIP1 / Fold change vs veh, ARFIP1 / RFU, FAM179B / Fold change vs veh, FAM179B / RFU, BCL10 / Fold change vs veh, BCL10 / RFU, UHRF1BP1L / Fold change vs veh, UHRF1BP1L / RFU, BET1 / Fold change vs veh, BET1 / RFU, CNOT2 / Fold change vs veh, CNOT2 / RFU, ZNF268 / Fold change vs veh, ZNF268 / Fold change vs veh, ZNF507 / RFU, DGCR2 / Fold change vs veh, DGCR2 / RFU, WDSUB1 / Fold change vs veh, WDSUB1 / Fold change vs veh, HSP90B1 /// MIR3652 / RFU, ADSS / Fold change vs veh, ADSS / RFU, GK / Fold change vs veh, GK / RFU, ZNF148 / Fold change vs veh, ZNF148 / RFU, TAF9 / Fold change vs veh, TAF9 / RFU, SLC1A5 / Fold change vs veh, SLC1A5 / RFU, SLMO2 / Fold change vs veh, SLMO2 / RFU, ABCC4 / Fold change vs veh, ABCC4 / RFU, LOC101060439 /// RAP1B / Fold change vs veh, LOC101060439 /// RAP1B / RFU, RFX7 / Fold change vs veh, RFX7 / RFU, GTPBP10 / Fold change vs veh, GTPBP10 / RFU, CNEP1R1 / Fold change vs veh, CNEP1R1 / RFU, BIVM-ERCC5 /// ERCC5 / Fold change vs veh, BIVM-ERCC5 /// ERCC5 / RFU, ILF3 / Fold change vs veh, ILF3 / RFU 11762660_at / Fold change /veh 11762660_at / RFU VCAN (11757783_s_at) / Fold change /veh VCAN (11757783_s_at) / RFU DDX43 (11728927_at) / Fold change /veh DDX43 (11728927_at) / RFU KRT8 (11758188_x_at) / Fold change /veh KRT8 (11758188_x_at) / RFU NKD1 (11759106_at) / Fold change /veh NKD1 (11759106_at) / RFU SRD5A1 (11742802_a_at) / Fold change /veh SRD5A1 (11742802_a_at) / RFU TPSAB1 /// TPSB2 (11721975_s_at) / Fold change /veh TPSAB1 /// TPSB2 (11721975_s_at) / RFU GSTM3 (11746129_a_at) / Fold change /veh GSTM3 (11746129_a_at) / RFU IL23R (11737362_x_at) / Fold change /veh IL23R (11737362_x_at) / RFU TMEM51 (11727254_a_at) / Fold change /veh TMEM51 (11727254_a_at) / RFU PIWIL2 (11732686_x_at) / Fold change /veh PIWIL2 (11732686_x_at) / RFU ORM1 (11744905_x_at) / Fold change /veh ORM1 (11744905_x_at) / RFU CCDC152 (11743942_at) / Fold change /veh CCDC152 (11743942_at) / RFU ECM1 (11717891_a_at) / Fold change /veh ECM1 (11717891_a_at) / RFU IL23R (11748794_a_at) / Fold change /veh IL23R (11748794_a_at) / RFU TNFAIP8L3 (11732012_x_at) / Fold change /veh TNFAIP8L3 (11732012_x_at) / RFU MBOAT4 (11741988_at) / Fold change /veh MBOAT4 (11741988_at) / RFU 11764193_at / Fold change /veh 11764193_at / RFU TMEM53 (11763286_at) / Fold change /veh TMEM53 (11763286_at) / RFU MAGEB2 (11727129_at) / Fold change /veh MAGEB2 (11727129_at) / RFU TMEM200A (11744735_a_at) / Fold change /veh TMEM200A (11744735_a_at) / RFU CCDC152 (11751479_a_at) / Fold change /veh CCDC152 (11751479_a_at) / RFU FAM211A (11726209_a_at) / Fold change /veh FAM211A (11726209_a_at) / RFU RGS16 (11746705_a_at) / Fold change /veh RGS16 (11746705_a_at) / RFU VCAN (11755009_s_at) / Fold change /veh VCAN (11755009_s_at) / RFU RHOB (11743442_s_at) / Fold change /veh RHOB (11743442_s_at) / RFU RGS16 (11720943_a_at) / Fold change /veh RGS16 (11720943_a_at) / RFU RGS16 (11720944_at) / Fold change /veh RGS16 (11720944_at) / RFU, VPS4B / Fold change vs veh, VPS4B / RFU, CREB1 / Fold change vs veh, CREB1 / RFU, DNAJC13 / Fold change vs veh, DNAJC13 / RFU, GNAQ / Fold change vs veh, GNAQ / RFU, CDK5R1 / Fold change vs veh, CDK5R1 / RFU, ZRANB3 / Fold change vs veh, ZRANB3 / RFU, CUL4A / Fold change vs veh, CUL4A / RFU, CCNY / Fold change vs veh, CCNY / RFU, UFL1 / Fold change vs veh, UFL1 / RFU, COG3 / Fold change vs veh, COG3 / RFU, DIAPH2 / Fold change vs veh, DIAPH2 / RFU, SKA2 / Fold change vs veh, SKA2 / RFU, AFF3 / Fold change vs veh, AFF3 / RFU, LMF1 / Fold change vs veh, LMF1 / RFU, IPO11 / Fold change vs veh, IPO11 / RFU, DFFB / Fold change vs veh, DFFB / RFU, FOXP1 / Fold change vs veh, FOXP1 / RFU, CARD8 / Fold change vs veh, CARD8 / RFU, STRN3 / Fold change vs veh, STRN3 / RFU, ADK / Fold change vs veh, ADK / RFU, RASSF2 / Fold change vs veh, RASSF2 / RFU, WIPF1 / Fold change vs veh, WIPF1 / RFU, LARP1B / Fold change vs veh, LARP1B / RFU, RASA1 / Fold change vs veh, RASA1 / RFU, RB1 / Fold change vs veh, RB1 / RFU, PPFIA1 / Fold change vs veh, PPFIA1 / RFU, MAT2A / Fold change vs veh, MAT2A / RFU, CCT5 / Fold change vs veh, CCT5 / RFU, WDR92 / Fold change vs veh, WDR92 / RFU, CUX1 / Fold change vs veh, CUX1 / RFU, TTC7A / Fold change vs veh, TTC7A / RFU, TMEM135 / Fold change vs veh, TMEM135 / RFU, DEPTOR / Fold change vs veh, DEPTOR / RFU, CPM / Fold change vs veh, CPM / RFU, DNAJB6 / Fold change vs veh, DNAJB6 / RFU, CACNA2D3 / Fold change vs veh, CACNA2D3 / RFU, DTX4 / Fold change vs veh, DTX4 / RFU, TFCP2 / Fold change vs veh, TFCP2 / RFU, GMCL1 /// GMCL1P1 / Fold change vs veh, GMCL1 /// GMCL1P1 / RFU, AEBP2 / Fold change vs veh, AEBP2 / RFU, SNHG1 /// SNORD22 /// SNORD25 /// SNORD26 /// SNORD27 /// SNORD28 /// SNORD29 /// SNORD31 / Fold change vs veh, SNHG1 /// SNORD22 /// SNORD25 /// SNORD26 /// SNORD27 /// SNORD28 /// SNORD29 /// SNORD31 / Fold change (Aza/veh), C12orf56 (ProbeSet 11735607_a_at) / Fold change (ACY-1035/veh), C12orf56 (ProbeSet 11735607_a_at) / Fold change (Aza/veh), FGFR1OP (ProbeSet 11751329_s_at) / Fold change (ACY-1035/veh), FGFR1OP (ProbeSet 11751329_s_at) / Fold change (Aza/veh), VPS36 (ProbeSet 11739960_a_at) / Fold change (ACY-1035/veh), VPS36 (ProbeSet 11739960_a_at) / RFU SYPL1 (11715823_x_at) / Fold change /veh SYPL1 (11715823_x_at) / RFU IGFBP7 (11715501_s_at) / Fold change /veh IGFBP7 (11715501_s_at) / RFU REEP3 (11722064_at) / Fold change /veh REEP3 (11722064_at) / RFU IGLL1 (11728026_x_at) / Fold change /veh IGLL1 (11728026_x_at): dose or concentration left out as unconfirmed",
  "conditions": "MV-4-11 cells, 48 hours",
  "data": [
    {"compound": "Nc1ncn([C@@H]2O[C@H](CO)[C@@H](O)[C@H]2O)c(=O)n1", "note": "[azacitidine]", "values": [
      {"measurement": "RFU ISYNA1 (11749810_s_at)", "value": 23.56, "unit": "RFU"}
    ]}
  ]
}
